# Experimental data: US5716964A, “Tetrazolyl substituted imidazo[1,2-a]pyridinylalkyl compounds for treatment of neurotoxic injury” (G.D. Searle & Co., priority 1995, dated 1998)
# pKi: −log10 of the molar value. Structures can show the parent of a compound that is named as a salt.
# Key:
# NMDA = conditions: Murphy et al. 1987; cited from earlier work
# AMPA (QUIS) receptor = assay: [3H]AMPA (QUIS) binding assay; conditions: [3H]AMPA 10 nM, 100 mM KSCN, SPM, 0-4 °C, 10 min; read-out: Ki IC50 Binding, AMPA
# Procedure: Synaptic plasma membranes (SPM) were prepared as previously described [Monahan, J. B. and Michel, J., "Identification and Characterization of an N-methyl-D-aspartate-specific L[^3 H]glutamate Recognition Site in Synaptic Plasma Membranes, J. Neurochem., 48, 1699-1708 (1987)]. The SPM were stored at a concentration of 10-15 mg/ml in 0.32M sucrose, 0.5 mM EDTA, 1mM MgSO4, 5 mM Tris/SO4, pH 7.4, under liquid nitrogen. The identity and purity of the subcellular fractions were confirmed by both electron microscopy and marker enzymes. Protein concentrations were determined by using a modification of the method of Lowry [Ohnishi, S. T. and Barr, J. K., "A Simplified Method of Quantitating Proteins Using the Biuret and Phenol Reagents", Anal. Biochem., 86, 193-197 (1978)]. The SPM were treated identically for the [^3 H]AMPA (QUIS), [^3 H]kainate and sodium-dependent L-[^3 H]-glumatate binding assays. The SPM were thawed at room temperature, diluted twenty-fold with 50 mM Tris/acetate, pH 7.4, incubated at 37° C. for 30 minutes, and centrifuged at 100,000 g for 15 minutes. The dilution, incubation, and centrifugation was repeated a total of three times. Prior to use in the NMDA specific L-[^3 H]-glutamate binding assay the SPM were thawed, diluted twenty fold with 50 mM Tris/acetate, pH 7.4 containing 0.04% (v/v) Triton X-100, incubated for 30 minutes at 37° C. and centrifuged as described above. The Triton X-100 treated membranes were washed with 50 mM Tris/acetate, pH 7.4 and centrifuged at 100,000 g for 15 minutes a total of four times. […] The basic procedure for the receptor subclass binding assays was similar. This general method involved adding the radioligand (12.5 nM L-[^3 H]glutamate; 0.5 nM [^3 H]kainate or 10 nM [^3 H]AMPA) to the appropriate concentration of the test compound and initiating the assay by the addition of ice cold synaptic plasma membranes (0.2-0.45 mg). The binding assays were performed in 1.5 mL centrifuge tubes with the total volume adjusted to 1.0 mL. Additions of test compounds were made in 50 mM Tris/acetate, pH 7.4 and incubations were carried out at 0°-4° C. The incubation time for the NMDA and the AMPA binding assays was 10 minutes, for the kainate binding assay 60 minutes and for the sodium-dependent glutamate binding assay 15 minutes. The AMPA binding assay contained 100 mM KSCN and the sodium-dependent glutamate binding assay contained 150 mM sodium acetate in addition to the previously described reagents. To terminate the incubation, the samples were centrifuged for 15 minutes at 12,000 g and 4° C. in a Beckman Microfuge 12. The supernatant was aspirated and the pelleted membranes dissolved in Beckman BTS-450 tissue solubilizer for a minimum of 6 hours at room temperature. Beckman MP scintillation cocktail containing 7 mL/l acetic acid was then added and the samples counted on a Beckman LS 5800 or 3801 liquid scintillation counter with automatic corrections for quenching and counting efficiency. Nonspecific binding was defined as the residual binding in the presence of either excess L-glutamate (0.1-0.4 mM), kainate (0.01 mM), or NMDA (0.5 mM), and was 15-25% of the total binding in the NMDA binding assay, 19-27% in the AMPA binding assay, 20-30% in the kainate binding assay and 10-15% in the sodium-dependent binding assay. Radioligand binding to the synaptic plasma membranes was analyzed using Scatchard and Hill transformations and the Ki values of the compounds determined using logit-log transformations. Calculations and regression analysis were performed using templates developed for Lotus 1, 2, 3 as previously described [Pullan, L. M. "Automated Radioligand Receptor Binding Analysis with Templates for Lotus", Computer Appln. Biosci., 3, 131 (1987)]. Binding results are reported in Table I for example compounds of the invention.
# [1] = tested on: Mongolian gerbils, CA1 region of the hippocampus; assay: Forebrain ischemia assay (bilateral carotid occlusion, CA1 hippocampal neuron count); type: in vivo, Mongolian gerbil; conditions: vs control, Mann-Whitney U test
# Procedure: This assay was used to determine the extent of protection afforded by compound of the invention to neural brain cells subjected to ischemic conditions. Male Mongolian gerbils, 50-70 gm, were used as subjects. Compound No. 7 (30 mg/kg) was injected i.p. 30 minutes prior to carotid occlusion into 6 gerbils […]. In preparation for surgical procedures, the animals were lightly anesthetized with methoxyflurane and placed upside down on a heated pad with their snout within a nosecone. A 70:30 mixture of nitrous oxide and oxygen containing 0.5% halothane was circulated through the nosecone to provide continuous anesthesia throughout the surgical procedure. A midline incision was made in the neck and the carotid arteries were exposed. A length of suture thread was placed under each carotid. […] Quantification of the resulting lesion is made by counting the pyramidal cell somata in a 0.5 mm length of CAl of the hippocampus on the section corresponding to P 1.7 mm in the gerbil brain atlas.
# Normal cell count in this region of the hippocampus in unoperated gerbils is 146±2. The effects of compound of Ex. #7 were assessed by comparing the number of neural cells found in the hippocampus of subjects treated with Ex. #7 compound with the cell number found in the appropriate control groups. […]
# [2] = tested on: mice (tonic hindlimb extensor seizures); assay: Anticonvulsant assay (electroconvulsive shock, tonic hindlimb extensor seizures); type: in vivo, mouse (CD-1); conditions: s.c., 30 min prior to ECS
# From the text: (§1) 6, 351-353 (1977)]. […] The screens were then slowly inverted. […] The current was held constant at 15 mA. […] There were 10 mice in each treatment group.
# mice (motor function) = assay: Inverted screen test for motor impairment; type: in vivo, mouse (CD-1)
# From the text: as §1
# [3] = tested on: cGMP levels in cerebellum; assay: Effect on cGMP levels in cerebellum; type: in vivo, mouse (Swiss-Webster); conditions: s.c.
# Procedure: The purpose of this assay is to determine the extent of in vivo bioavailability and the potency as an NMDA antagonist of compound of the invention as compared to known NMDA antagonists, namely, 3(2-carboxypiperizine-4-yl)propyl-1-phosphonic acid (CPP~ and cis-4-phosphonomethyl-2-piperidinecarboxylic acid (CGS 19755). Male Swiss-Webster mice (17-24 g were injected sub-cutaneously (s.c.) with compound of the invention and the known NMDA antagonist standards 30 minutes prior to sacrifice by focussed microwave irradiation. Groups consisted of 7-10 mice. Compounds of Ex. #7 was dissolved in isotonic saline and all compounds were administered in a volume of 0.2 ml per mouse. Cerebella samples were extracted in IN HCl. Hydrochloric acid in extracts of the cerebellum were freeze-dried for assay of cGMP with a commercial RIA kit (NEN). Statistics (Dunett's t-test) were performed as described previously [P. L. Wood et al., Neurochem, 19, 975-982 (1980)]. ED50 values were calculated from log-logit transformation of the dose-response data.
# [4] = tested on: TCP (1-[1-(2-thienyl)cyclohexyl]piperidine) binding in rat brain synaptic membranes; assay: TCP modulation assay ([3H]TCP binding); conditions: printed in the column TCP Ki IC50
# Procedure: The effect on the TCP (1-[1-(2-thienyl)cyclohexyl]piperidine) binding was measured in rat brain synaptic membranes (SPM) prepared as previously described [J. B. Monahan & J. Michel; J. Neurochem. 48:1699-1708 (1987)]. Prior to their use in the binding assay, frozen SPM were thawed, diluted twenty fold with 50 mM Tris/acetate (pH 7.4 containing 0.04% (v/v) Triton X-100), incubated for 30 min. at 37° C. and centrifuged at 95,000×g for 15 min. The Triton X-100 treated SPM were washed with 5 mM Tris/HCl, pH 7.4 and centrifuged a total of six times. The compound of Example #7 was incubated at different concentrations with SPM (0.2-0.4 mg protein) and 2 nM tritiated TCP, in a total volume of 0.5 ml of 5 mM Tris/HCl buffer pH 7.4 at 25° C. for 60 min. The samples were filtered through glass fiber filters (Schleicher & Schuell #32) which have been pretreated with 0.05% (v/v) polyethylenimine, washed 4 times with 2 ml of ice-cold 5 mM Tris/HCl buffer, and then counted on a Beckman LS 5800 liquid scintillation counter with automatic corrections for quenching and counting efficiency. Inhibition of TCP binding was measured as a decrease in the binding in the presence of 0.05 mM L-glutamate. Non-specific binding was defined as the residual binding in the presence of […] phencyclidine.
smiles,measurement,setting,value
"O=C(O)C1CN(CCCP(=O)(O)O)CCN1 (stereo not drawn) [CPP, 3-(2-carboxypiperazin-4-yl)propyl-1phosphonic acid]","NMDA antagonism, in words",NMDA,potent and selective NMDA antagonist
"O=C(O)c1cn2c(CP(=O)(O)O)cccc2n1 [Example 7, 5-(phosphonomethyl)imidazo[1,2-a]pyridine-2-carboxylic acid]",pKi,AMPA (QUIS) receptor,< 3.52
same,"hippocampal cell loss after ischemia, in words",[1],significantly reduced
same,"protection against tonic hindlimb extensor seizures, in words",[2],protected against tonic hindlimb extensor seizures in a dose-dependent fashion
same,Exhibiting Motor Impairments,mice (motor function); 10 mg/kg s.c.,30 % of Mice
same,Exhibiting Motor Impairments,mice (motor function); 32 mg/kg s.c.,50 % of Mice
same,Exhibiting Motor Impairments,mice (motor function); 56 mg/kg s.c.,70 % of Mice
same,Exhibiting Motor Impairments,mice (motor function); 100 mg/kg s.c.,90 % of Mice
same,"impairment of motor function, in words","mice (motor function); s.c., inverted screen",impaired motor function in a similar dose range
same,"brain bioavailability (decrease of cGMP in mouse cerebellum), in words",[3],brain bioavailable
same,"potency compared with CPP, in words",[3]; decrease in cerebellar cGMP,in the same range of potency as the known NMDA antagonist CPP
"O=C(O)c1cn2cc(CP(=O)(O)O)ccc2n1 [Example 13, 6-(phosphonomethyl)imidazo[1,2-a]pyridine-2-carboxylic acid]",pKi,AMPA (QUIS) receptor,< 3.52
"O=C(O)c1cn2ccc(CP(=O)(O)O)cc2n1 [Example 18, 7-(phosphonomethyl)imidazo[1,2-a]pyridine-2-carboxylic acid]",pKi,AMPA (QUIS) receptor,< 3.52
"O=C(O)c1cn2cccc(CP(=O)(O)O)c2n1 [Example 23, 8-(phosphonomethyl)imidazo[1,2-a]pyridine-2-carboxylic acid]",pKi,AMPA (QUIS) receptor,< 3.52
"O=C(O)c1cn2c(CP(=O)(O)O)c(Cl)ccc2n1 [Example 30, 6-chloro-5-(phosphonomethyl)imidazo[1,2-a]pyridine-2-carboxylic acid]",pKi,AMPA (QUIS) receptor,< 3.52
"O=C(O)c1cn2c(C(O)P(=O)(O)O)cccc2n1 (stereo not drawn) [Example 57, 5-(hydroxyphosphonomethyl)imidazo[1,2-a]pyridine-2-carboxylic acid, monohydrochloride]",pKi,AMPA (QUIS) receptor,< 3.52
same,"TCP binding, result in words",[4],antag.
"Cc1c(C(=O)O)nc2c(CP(=O)(O)O)cccn12 [Example 67, 3-methyl-8-(phosphonomethyl)imidazo[1,2-a]pyridine-2-carboxylic acid, monohydrochloride]",pKi,AMPA (QUIS) receptor,< 3.52
